Source: US20160039897A1, “COMPOUNDS AND METHODS FOR TREATING OBESITY AND CONTROLLING WEIGHT” (THE UNIVERSITY OF NORTH CAROLINA AT CHAPEL HILL, priority 2013, published 2016)

How the values were obtained:
IGFBP-2−/− mice [1] = experiment: Adipocyte area measurement in peri-gonadal adipose tissue; format: in vivo, mouse; details: after 12 weeks
Experimental: Adipocyte area measurement. Samples of peri-gonadal adipose tissue were fixed in 10% formalin and embedded in paraffin. Multiple sections were obtained from each sample and stained with hematoxylin and eosin. Digital images of each section were acquired using an Olympus BX61 microscope and cell areas were traced manually for at least 200 cells per section by an investigator blinded to the sample identity, using Image J software (1ASS). Four sections from each adipose depot were analyzed to derive the mean cell area per mouse 6 mice per group).

IGFBP-2−/− mice [2] = experiment: Inguinal and visceral fat pad, liver and heart weights at sacrifice; format: in vivo, mouse; details: after 12 weeks; for Inguinal fat / Visceral fat: pegylated peptide 50 μg IP 3 times/week, mean±SE
Experimental: (§1) Body fat and lean muscle mass was measured at weeks 0 and 12 of treatment by magnetic resonance imaging analysis (EchoMRI-100, Echo Medical Systems, Houston, Tex.), a technique that measures fat mass and lean mass in unanesthetized animals (Kelly S A, et. al., 2010). After completion of 12 weeks of treatment, the mice were sacrificed. Blood was collected by cardiac puncture and allowed to sit for 4 hours before centrifuging at 3500 rpm×15 min. The serum was aspirated and stored at −20° C. until analysis. Abdominal inguinal and visceral fat pads were carefully dissected from each animal according to defined anatomical landmarks. All subcutaneous fat between the lower part of the rib cage and the upper thigh was considered abdominal subcutaneous inguinal fat, whereas all fat found along the mesentery starting at the lesser curvature of the stomach and ending at the sigmoid colon was considered visceral fat. Fat depots were blotted dry prior to weighing. The right inguinal fat pad was dissected separately and the triglyceride content of this tissue was determined by a colorimetric analysis (Pointe Scientific, Canton, Mich.), as previously described (Dann H, Kimura S 1992). Serum adiponectin and leptin were measured by ELISA following manufacturer's instructions (Millipore, Billerica, Mass.).
(§2) Body composition and serum adipokine measurement. Body fat and lean mass were measured at weeks 0 and 12 of treatment by magnetic resonance imaging analysis (EchoMRI-100, Echo Medical Systems, Houston, Tex.), using unanesthetized animals. After 12 weeks of treatment, the mice were sacrificed and blood was collected by cardiac puncture and centrifuged at 3500 rpm×15 min. The serum was stored at −20° C. Abdominal inguinal and visceral fat pads were dissected from each animal according to defined anatomical landmarks. Subcutaneous fat between the rib cage and the upper thigh was termed subcutaneous inguinal fat, whereas all fat from the lesser curvature of the stomach to the sigmoid colon was termed visceral fat. Fat depots were blotted dry prior to weighing. The right inguinal fat pad was dissected separately and the triglyceride content of this tissue was determined by a calorimetric analysis (Pointe Scientific, Canton, Mich. Serum adiponectin and leptin were measured by ELISA following manufacturer's instructions (Millipore, Billerica, Mass.).

IGFBP-2−/− mice [3] = experiment: Serum adiponectin and leptin by ELISA; format: in vivo, mouse; details: after 12 weeks
Experimental: as §1, §2

IGFBP-2−/− mice [4] = experiment: Triglyceride content of right inguinal fat pad (colorimetric); format: in vivo, mouse; details: after 12 weeks; vs control peptide
Experimental: as §1, with “All subcutaneous fat between the lower part of the rib cage and the upper thigh was considered abdominal subcutaneous inguinal fat, whereas all fat found along the mesentery starting at the lesser curvature of the stomach and ending at the sigmoid colon was considered visceral fat. Fat depots were blotted dry prior to weighing.” left out
Body composition and serum adipokine measurement. Body fat and lean mass were measured at weeks 0 and 12 of treatment by magnetic resonance imaging analysis (EchoMRI-100, Echo Medical Systems, Houston, Tex.), using unanesthetized animals. […]

[5] = system: primary preadipocytes from IGFBP-2−/− mice; experiment: Differentiation of primary preadipocytes (immunoblot of adiponectin, aP2, PPARγ; Oil Red O staining); format: cell-based, mouse; details: for % suppression of adiponectin / reduction of PPARγ expression / reduction of aP2 expression / reduction of adiponectin expression: mean±SE; for % suppression of adiponectin: N=3; for relative potency as inhibitor of adipogenesis / preadipocyte differentiation (in words): comparison between peptides and proteins, immunoblot and Oil Red O; for reduction of PPARγ expression / reduction of aP2 expression / reduction of adiponectin expression: peptide 6 μg/ml in differentiation medium vs differentiation medium only, immunoblot relative to β-actin
Experimental: Primary preadipocytes were isolated from epididymal fat pads of 6 week old IGFBP-2^−/− mice. The cells were cultured using a previously described method (Boney, C M et al., 1994). The fat pads were weighed and the tissue was digested with an equal volume (W/V) of collagenase type A (Roche Applied Science, Indianapolis, Ind.) in HEPES buffer (0.1M and 1.5% BSA) for 45 min at 37° C. Following complete digestion, the preadipocytes were separated from the stromal vascular cells by centrifugation at 500×g for 5 min. The pelleted cells were washed with DMEM containing 30 mM glucose (Gibco, Grand Island, N.Y.) and passed through a 100 μm mesh filter (BD Biosciences, Bedford, Mass.). The cells were then plated in 6-well plates (Falcon Corp., Franklin Lakes, N.J.) at a density of 1.2-1.5×10^4 cells/ml in DMEM containing 30 mM glucose supplemented with penicillin (100 U/ml), streptomycin (100 μg/ml), and 10% fetal bovine serum hereafter referred to as standard medium. The cultures had the medium changed every 2 days until they reached confluency. Two day post-confluent cells were then exposed to differentiation medium (serum free DMEM containing 0.5 mM IBMX, 1 μM dexamethasone, and 5 μg/mL insulin) and incubated for 2 days. Experimental treatments that were added to this medium included either wild type IGFBP-2 (3 μg/ml), HBD1 peptide (6 μg/ml), HBD1 control peptide (6 μg/ml), HBD2 peptide (6 μg/ml), HBD2 control peptide (6 μg/ml), HBD1 mutant IGFBP-2 (3 μg/ml) or the HBD2 mutant IGFBP-2 (3 μg/ml). Cultures were maintained for two additional days in the standard medium supplemented with 5 μg/ml insulin. Thereafter, the cultures were kept in the fresh standard medium without insulin for additional two days.
After treatment, the cells were rinsed with PBS for two times and fixed with 10% formalin for 30 min at room temperature. After rinsing with distilled water for twice, 100% propylene glycol (Poly Scientific, Bay Shore, N.Y.) was added and incubated for 5 min. Before adding Oil Red O solution (Poly Scientific, Bay Shore, N.Y.), propylene glycol was removed. The cultures were incubated for 10 min at 60° C. Removing Oil Red O solution, the cultures were incubated with 80% propylene glycol for 5 min, After incubation, the cultures were rinsed with tap water twice. Images were captured using an Olympus IX81 inverted microscope.
Differentiated adipocytes were lysed in ice-cold lysis buffer (Xi et al., 2008). After centrifugation at 14,000×g for 10 min, solubilized proteins were quantified by the Bradford method (Thermo Scientific, Rockford, Ill.). Equal protein amounts of lysates were loaded onto a SDS-polyacrylamide gel and the proteins were separated, then transferred to an Immobilon filter and visualized by immunoblotting using the appropriate antibody. The primary antibody dilutions that were used were 1:1000 for the anti-adiponectin antibody (Affinity BioReagents, Golden, Colo.), 1:500 for the anti-PPARγ antibody (Cell Signaling Technology Inc., Beverly, Mass.), 1:2000 for the anti-apt antibody (ProSci Inc., Poway, Calif.) and 1:5000 for the anti-β-actin antibody (Sigma Chemical Company, St. Louis, Mo.). The immune complexes were visualized using enhanced chemiluminescence (Thermo Fischer Scientific, Rockford, Ill.).
Preadipocytes were prepared from mice and grown in culture as described herein. The respective mouse and human peptides were added to cells and the cells were lysed and the lysates were run on SDS gels as described. Immunoblotting for adiponectin was carried as described. Three concentrations of each peptide, 0.7, 2.0 and 6.0 μg/ml, were compared. The results were expressed as % suppression mean±SE(N=3) and were as follows.
Cell culture of primary preadipocytes. Preadipocytes were isolated from epididymal fat pads of IGFBP-2^−/− mice. The cultures had the medium changed every 2 days until they reached confluency. […]

| Sequence | adipocyte size (IGFBP-2−/− mice [1]) [pixels/cell] | reduction of inguinal fat pad (percentage of body weight) compared to control peptide (IGFBP-2−/− mice [2]) | reduction of visceral fat (percentage of body weight) compared to control peptide (IGFBP-2−/− mice [2]) [%] | Inguinal fat (IGFBP-2−/− mice [2]) | Visceral fat (IGFBP-2−/− mice [2]) [g] | increase of serum leptin level compared to control peptide treated mice (IGFBP-2−/− mice [3]) | serum adiponectin level lower than in control peptide treated mice (IGFBP-2−/− mice [3]) [%] | serum adiponectin level reduction compared to HBD1 peptide treated mice (IGFBP-2−/− mice [3]) [%] | reduction of triglyceride content in the inguinal fat pad (IGFBP-2−/− mice [4]) [%] | % suppression of adiponectin ([5]; 0.7 μg/ml peptide) [%] | % suppression of adiponectin ([5]; 2.0 μg/ml peptide) [%] | % suppression of adiponectin ([5]; 6.0 μg/ml peptide) [%] | potency in inhibiting preadipocyte differentiation relative to the HBD1 peptide ([5]; HBD2 peptide vs HBD1 peptide) [fold] | relative potency as inhibitor of adipogenesis / preadipocyte differentiation (in words) [5] | relative potency as inhibitor of adipogenesis / preadipocyte differentiation (in words) ([5]; listed as human peptide) | reduction of PPARγ expression [5] [%] | reduction of aP2 expression [5] | reduction of adiponectin expression [5] | relative potency as inhibitor of adipogenesis / preadipocyte differentiation (in words) ([5]; listed as mouse HBD1 peptide) |
| --- | --- | --- | --- | --- | --- | --- | --- | --- | --- | --- | --- | --- | --- | --- | --- | --- | --- | --- | --- |
| KHGLYNLKQCKMSLNGQR [HBD2 peptide] | 11967±716 | 32±7% | 44±7 | 0.23 ± 0.02 g | 0.25 ± 0.02 | 57±9% | 36±4 | 24±5 | 37±9 | 49.4 ± 10 | 87.9 ± 6.2 | 96.9 ± 7.0 | 1.8 | most potent inhibitors of adipogenesis | equipotent | 67±7 | completely inhibited | completely inhibited | – |
| KHLSLEEPKKLRP [HBD1 peptide] | 12406±748 | had no effect | 24±5 | had no effect | 0.34 ± 0.01 | had no effect | – | – | 22±2 | – | – | – | – | less activity | – | 47±9 | 51±2% | 66±10% | equivalent in inhibiting preadipocyte differentiation |
